Measurements as given in patent US20260137698A1, “CYCLIN-DEPENDENT KINASE 7 INHIBITORS” (JOINT STOCK COMPANY «BIOCAD», priority 2022, published 2026).
Where two headings read alike, the source gives them in different places.

What was measured:
[1] = tested on: MDA-MB-468 (triple negative breast cancer); assay: Antiproliferative assay on MDA-MB-468 cells (AlamarBlue, 96 h); format: cell-based; conditions: Homo sapiens, mean value from several measurements
[2] = General cytotoxicity on primary differentiated HepaRG cells (72 h); format: cell-based; conditions: human, general toxicity, mean value from several measurements
Outline: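 Differentiated HepaRG cells, maintained a week in basal hepatic medium with maintenance/metabolism supplement, were plated at 25×10^3 cells/well overnight. Compounds (200 μM to 0.2 nM) were added for 72 h before viability readout.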

[3] = Passive membrane permeability through PAMPA artificial membrane, pH 7.4; format: in vitro ADME; conditions: pH 7.4, 10 μmol, 20 hours at room temperature, mean of multiple measurements, read-out: PAMPA passive permeability Pe
Procedure: Passive membrane permeability of the compounds described in the present invention was determined using the PAMPA (parallel artificial membrane permeability assay) model at pH 7.4.
We used a 96-well plate (Corning® BioCoat® Pre-coated PAMPA Plate System, order no. 353015), composed of acceptor and donor parts with cell membrane-modeling PVDF filter pre-impregnated with a lecithin-phospholipid bilayer. The substance (at a concentration of 10 μmol) in a 0.01 M phosphate buffer with pH 7.4 was introduced into a donor well of the plate, and pure buffer was introduced into an acceptor well; afterwards, the both parts were combined and incubated for 20 hours at room temperature so that the compound was redistributed between the two wells and the membrane. Verapamil (USP, USA, order no. 1711202) and propranolol (MCE LLC, USA, cat. no. HY-B0573/CS-2680) were used as control compounds with high and medium permeability. Samples were analyzed by reversed-phase HPLC with UV detection (Agilent 1260 chromatograph with UV detector) by determining their peak areas in the donor and acceptor wells.
Permeability (Pe, cm/s) and retention factor (R, %) in the lipid bilayer were calculated using the formula:
[formula] [formula] • Co is donor-well concentration of the substance at the initial moment of time t (μM); • CA (t) is acceptor-well concentration of the substance at time t (μM); • Vd is donor-well volume (0.3 ml); • Va is acceptor-well volume (0.15 ml).
[formula] • A is filter area (0.3 cm^2); • t is incubation time (72000 s);

CDK7/Cyclin H/MNAT1 = CDK7/Cyclin H/MNAT1 (Homo sapiens, UniProt P50613); assay: Inhibition of CDK7/Cyclin H/MNAT1 kinase activity (ADP-Glo); format: biochemical
Outline: (§1)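 Kinase preincubated with compound (11 points, 4-fold steps from 50 μM) for 10 minutes at 25° C. in kinase buffer A with DTT, then reacted 40-60 minutes at 25° C. with ATP and CDKtide, Histone H1 or PDKtide substrate. ADP formation read by ADP-Glo luminescence; IC50 from four-parameter fit.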

[4] = tested on: NCl-H82 (small cell lung cancer); assay: Antiproliferative assay on NCl-H82 cells (AlamarBlue, 120 h); format: cell-based; conditions: mean value from several measurements
Procedure: The antiproliferative activity of CDK7 inhibitors according to the present invention was evaluated in a cell test using continuous cell cultures: MDA-MB-468 (triple negative breast cancer, ATCC® HTB-132™) and NCl-H82 (small cell lung cancer, ATCC® HTB-175™) using a viable AlamarBlue dye (Thermo Fisher Scientific Inc, order no. DAL1100). The cells were grown in DMEM (PanEco, order no. C330π) and RPMI-1640 (PanEco, order no. C330π), respectively. The basal growth medium was enriched with L-glutamine at a concentration of 2 mM (PanEco, order no. Φ032) and 10% fetal bovine serum (Gibco, order no. 16140-071). The night before measurement, MDA-MB-468 adherent cells were detached from plastic with a solution of trypsin-EDTA (PanEco, order no. Π039π), the solution was then inactivated by a DMEM complete medium, centrifuged at 1000 RPM (Eppendorf, 5804 R), a suspension of cells was prepared in a DMEM complete medium, introduced into 96-well culture plates (Corning Inc, order no. 3599) at 8×10^3 cells in 100 μl of medium per well. The next day, test compounds were dissolved in DMSO and diluted with a DMEM complete medium to a final concentration ranging from 50 μM to 10 pM. Diluted compounds in a volume of 50 μl were introduced into the plate wells with cells in triplicates (the final concentration of DMSO was no more than 1%) and incubated at 37° C. in an incubator with 5% CO2 for 96 hours. NCl-H82 suspension cell line was prepared on the day of the analysis. 10×10^3 cells in 100 μl of an RPMI-1640 complete medium were added to each well of a 96-well plate. The procedure for sample dilution is as described above. Cells with test compounds were incubated at 37° C. in an incubator with 5% CO2 for 120 hours. Following incubation, […] of AlamarBlue reagent (Thermo Fisher Scientific Inc., order no. DAL1100) was added to the wells, the contents of the plates were stirred in an orbital shaker (Biosan, Latvia), then further incubated for 5.5-6 hours at 37° C. in an incubator with 5% CO2. The number of viable cells was detected using the Infinite M200Pro microplate spectrophotometer (Tecan Group Ltd, Switzerland) by way of measuring a fluorescent signal at an excitation wavelength (λEx) of 540 nm and an emission wavelength (λEm) of 590 nm.
IC50 value was calculated using the Magellan software (Tecan Group Ltd, Switzerland) by approximating experimental points by four-parameter model with the optimization by Levenberg-Marquardt: […]

CDK2/Cyclin A = CDK2/Cyclin A (Homo sapiens, UniProt P24941); assay: Inhibition of CDK2/Cyclin A kinase activity (ADP-Glo); format: biochemical
Outline: as §1

CDK9/Cyclin K = CDK9/Cyclin K (Homo sapiens, UniProt P50750); assay: Inhibition of CDK9/Cyclin K kinase activity (ADP-Glo); format: biochemical
Outline: as §1

[5] = mean value from several measurements, read-out: IC50 CDK7/Cyclin H/MNAT
[6] = mean value from several measurements, read-out: IC50 CDK2/Cyclin A
[7] = mean value from several measurements, read-out: IC50 CDK9/Cyclin K

Chain of CDK7/Cyclin H/MNAT1 (P50613 whole entry): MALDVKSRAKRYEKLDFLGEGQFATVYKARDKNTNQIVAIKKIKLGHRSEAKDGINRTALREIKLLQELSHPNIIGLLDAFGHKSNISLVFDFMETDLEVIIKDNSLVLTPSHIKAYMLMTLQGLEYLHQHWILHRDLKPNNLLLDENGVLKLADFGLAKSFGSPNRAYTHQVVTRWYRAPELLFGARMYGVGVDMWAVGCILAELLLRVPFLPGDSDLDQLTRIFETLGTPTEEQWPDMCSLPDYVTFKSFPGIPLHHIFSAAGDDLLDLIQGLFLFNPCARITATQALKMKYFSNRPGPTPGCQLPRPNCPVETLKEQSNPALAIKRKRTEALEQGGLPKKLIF
Chain of CDK7/Cyclin H/MNAT1 (P51946 whole entry partner): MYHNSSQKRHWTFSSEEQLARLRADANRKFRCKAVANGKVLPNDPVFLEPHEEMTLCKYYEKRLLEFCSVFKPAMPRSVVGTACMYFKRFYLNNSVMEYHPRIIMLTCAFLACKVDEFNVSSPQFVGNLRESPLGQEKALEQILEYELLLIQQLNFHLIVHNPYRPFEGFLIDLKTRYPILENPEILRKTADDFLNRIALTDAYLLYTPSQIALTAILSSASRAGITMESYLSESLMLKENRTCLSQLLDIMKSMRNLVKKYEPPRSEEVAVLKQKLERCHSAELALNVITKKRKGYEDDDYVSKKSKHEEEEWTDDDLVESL
Chain of CDK7/Cyclin H/MNAT1 (P51948 whole entry partner): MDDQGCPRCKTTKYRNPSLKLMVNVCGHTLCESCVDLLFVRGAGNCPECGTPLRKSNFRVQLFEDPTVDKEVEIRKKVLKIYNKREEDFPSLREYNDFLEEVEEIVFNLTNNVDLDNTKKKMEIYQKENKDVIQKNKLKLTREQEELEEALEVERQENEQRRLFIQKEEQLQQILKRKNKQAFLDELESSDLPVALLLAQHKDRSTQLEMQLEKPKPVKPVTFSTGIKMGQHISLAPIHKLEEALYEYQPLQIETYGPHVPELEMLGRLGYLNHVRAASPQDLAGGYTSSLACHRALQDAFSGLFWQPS
Chain of CDK9/Cyclin K (P50750 whole entry): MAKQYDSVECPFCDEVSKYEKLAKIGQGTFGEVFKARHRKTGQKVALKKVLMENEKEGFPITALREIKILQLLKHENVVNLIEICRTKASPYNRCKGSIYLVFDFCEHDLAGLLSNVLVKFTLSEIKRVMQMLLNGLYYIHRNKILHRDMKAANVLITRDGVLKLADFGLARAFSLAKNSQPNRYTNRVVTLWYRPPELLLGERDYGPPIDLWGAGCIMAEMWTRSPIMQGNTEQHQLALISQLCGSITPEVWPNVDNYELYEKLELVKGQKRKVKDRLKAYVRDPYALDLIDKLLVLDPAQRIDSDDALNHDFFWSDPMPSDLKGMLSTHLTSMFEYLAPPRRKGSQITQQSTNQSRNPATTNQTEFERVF
Chain of CDK9/Cyclin K (O75909 whole entry partner): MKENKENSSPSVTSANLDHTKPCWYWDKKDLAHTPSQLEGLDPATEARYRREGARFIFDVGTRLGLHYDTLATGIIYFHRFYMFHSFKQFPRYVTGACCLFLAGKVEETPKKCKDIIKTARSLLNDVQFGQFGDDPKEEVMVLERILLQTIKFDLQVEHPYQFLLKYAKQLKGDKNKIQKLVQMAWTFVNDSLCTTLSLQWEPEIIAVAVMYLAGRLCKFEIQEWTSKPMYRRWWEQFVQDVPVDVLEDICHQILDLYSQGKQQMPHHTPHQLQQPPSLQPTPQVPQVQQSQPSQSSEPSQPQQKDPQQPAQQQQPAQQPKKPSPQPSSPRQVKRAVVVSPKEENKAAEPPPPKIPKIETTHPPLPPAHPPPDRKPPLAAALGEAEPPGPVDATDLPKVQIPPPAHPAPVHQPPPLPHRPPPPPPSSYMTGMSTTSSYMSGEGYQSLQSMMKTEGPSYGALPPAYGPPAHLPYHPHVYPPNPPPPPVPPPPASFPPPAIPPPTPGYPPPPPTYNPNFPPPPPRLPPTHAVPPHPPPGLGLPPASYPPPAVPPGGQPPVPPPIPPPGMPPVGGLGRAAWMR

Structure (SMILES) | IC50 [1] [nM] | CC50 at 72 h [2] [nM] | Papp at 20 h, 10 μmol [3] [×10⁻⁶ cm/s] | IC50 (CDK7/Cyclin H/MNAT1; [5]) [nM] | IC50 [4] [nM] | IC50 (CDK2/Cyclin A; [6]) [nM] | IC50 (CDK9/Cyclin K; [7]) [nM] | IC50 (CDK7/Cyclin H/MNAT1; mean of multiple measurement series, ATP 10 μM, read-out: CDK7/Cyclin H/MNAT1 IC50) [nM] | IC50 (CDK2/Cyclin A; mean of multiple measurement series, ATP 50 μM, read-out: CDK2/Cyclin A IC50) [nM] | IC50 (CDK9/Cyclin K; mean of multiple measurement series, ATP 50 μM, read-out: CDK9/Cyclin K IC50) [nM]
O=C1NCCc2c(-c3nc(N[C@H]4CCCNC4)ncc3C(F)(F)F)c[nH]c21 [CDK7_814, 3-(2-{[(3S)-piperidin-3-yl]amino}-5-(trifluoromethyl)pyrimidin-4-yl)-1H,4H,5H,6H, 7H-pyrrolo[2,3-c]pyridin-7-one] | 10 to 100 | 500 to 2000 | < 1 | < 5 | 10 to 100 | > 200 | 50 to 200 |  |  | 
Cn1ccc2c(-c3nc(N[C@H]4CCCNC4)ncc3C(F)(F)F)c[nH]c2c1=O [CDK7_845, 6-methyl-3-(2-{[(3S)-piperidin-3-yl]amino}-5-(trifluoromethyl)pyrimidin-4-yl)-1H,6H,7H-pyrrolo[2,3-c]pyridin-7-one] | < 10 | 100 to 500 | < 1 | < 5 | < 10 | > 200 | 5 to 50 |  |  | 
CN1CC=Cc2c(-c3nc(N[C@H]4CCCNC4)ncc3C(F)(F)F)c[nH]c2C1=O [CDK7_929] | < 10 | 100 to 500 | < 1 | < 5 | < 10 | > 200 | 5 to 50 |  |  | 
Cn1nnnc1-c1cc(-c2nc(N[C@H]3CCCNC3)ncc2C(F)(F)F)c[nH]1 [CDK7_999, 4-[5-(1-methyl-1H-1,2,3,4-tetrazol-5-yl)-1H-pyrrol-3-yl]-N-[(3S)-piperidin-3-yl]-5-(trifluoromethyl) pyrimidin-2-amine] | 10 to 100 | 500 to 2000 | < 1 | < 5 | 100 to 1000 | > 200 | 5 to 50 |  |  | 
CN(C)C(=O)c1cc(-c2nc(N[C@H]3CCCNC3)ncc2C(F)(F)F)cn1C [CDK7_1017, N,N,1-trimethyl-4-(2-{[(3S)-piperidin-3-yl]amino}-5-(trifluoromethyl)py-rimidin-4-yl)-1H-pyrrole-2-carboxamide] | 100 to 1000 | > 2000 | 1 to 5 | 5 to 50 | > 1000 | > 200 | 50 to 200 |  |  | 
O=c1c2[nH]cc(-c3nc(N[C@H]4CCCNC4)ncc3C(F)(F)F)c2ccn1-c1nccs1 [CDK7_1058, 3-(2-{[(3S)-piperidin-3-yl]amino}-5-(trifluoromethyl)py-rimidin-4-yl)-6-(1,3-thiazol-2-yl)-1H,6H,7H-pyrrolo[2,3-c]pyridin-7-one] | < 10 | 500 to 2000 | 1 to 5 | < 5 | < 10 | > 200 | 5 to 50 |  |  | 
Cc1nc(-c2cc(-c3nc(N[C@H]4CCCNC4)ncc3C(F)(F)F)c[nH]2)no1 [CDK7_1060, 4-[5-(5-methyl-1,2,4-oxadiazol-3-yl)-1H-pyrrol-3-yl]-N-[(3S)-piperidin-3-yl]-5-(trifluoromethyl)py-rimidin-2-amine] | 10 to 100 | 100 to 500 | 5 to 10 | < 5 | 10 to 100 | > 200 | 5 to 50 |  |  | 
FC(F)(F)c1cnc(N[C@H]2CCCNC2)nc1-c1c[nH]c(-c2ccccn2)c1 [CDK7_1061, N-[(3S)-piperidin-3-yl]-4-[5-(pyridin-2-yl)-1H-pyrrol-3-yl]-5-(trifluoromethyl)py-rimidin-2-amine] | 10 to 100 | 500 to 2000 | 1 to 5 | 5 to 50 | 10 to 100 |  | 5 to 50 |  |  | 
FC(F)(F)c1cnc(N[C@H]2CCCNC2)nc1-c1c[nH]c(-c2nnnn2C2CC2)c1 [CDK7_1102] | 10 to 100 | 500 to 2000 | 1 to 5 | 5 to 50 | 10 to 100 | > 200 | 5 to 50 |  |  | 
O=c1c2[nH]cc(-c3nc(N[C@H]4CCCNC4)ncc3C(F)(F)F)c2ccn1C1CC1 [CDK7_1105, 6-cyclopropyl-3-(2-{[(3S)-piperidin-3-yl]amino}-5-(trifluoromethyl)py-rimidin-4-yl)-1H,6H,7H-pyrrolo[2,3-c]pyridin-7-one] | < 10 | 100 to 500 | < 1 | < 5 | 10 to 100 | > 200 | 5 to 50 |  |  | 
CC1(C)CC[C@H](Nc2ncc(C(F)(F)F)c(-c3c[nH]c4c3CCCN(C3CCCC3)C4=O)n2)CN1 [CDK7_1154, 7-cyclopentyl-3-(2-{[(3S)-6,6-dimethylpiperidin-3-yl]amino}-5-(trifluoromethyl)py-rimidin-4-yl)-1H,4H,5H,6H,7H, 8H-pyrrolo[2,3-c]azepin-8-one] | 10 to 100 | > 2000 | 5 to 10 | < 5 | 10 to 100 | > 200 | > 200 |  |  | 
CC1(C)CC[C@H](Nc2ncc(C(F)(F)F)c(-c3c[nH]c4c3CCCN(CC3CCCC3)C4=O)n2)CN1 [CDK7_1155, 7-(cyclopentylmeth-yl)-3-(2-{[(3S)-6,6-dimethylpiperidin-3-yl]amino}-5-(trifluoromethyl)py-rimidin-4-yl)-1H,4H,5H,6H,7H, 8H-pyrrolo[2,3-c]azepin-8-one] | 10 to 100 | > 2000 | 5 to 10 | 5 to 50 | 10 to 100 | > 200 | > 200 |  |  | 
CC1(C)CC[C@H](Nc2ncc(C(F)(F)F)c(-c3c[nH]c4c3CCCN(C3CCC3)C4=O)n2)CN1 [CDK7_1226, 7-cyclobutyl-3-(2-{[(3S)-6,6-dimethylpiperidin-3-yl]amino}-5-(trifluoromethyl)py-rimidin-4-yl)-1H,4H,5H,6H,7H, 8H-pyrrolo[2,3-c]azepin-8-one] | 10 to 100 | > 2000 | 1 to 5 | < 5 | 10 to 100 | > 200 | > 200 | 5.6 | 18600 | 760
